Like-named read-outs stand apart in the source and are kept apart here.
What was measured:
Or47a/Or83b = molecular target: T1, Or47a/Or83b (Drosophila melanogaster, UniProt P81921+Q9VNB5); assay: Ca2+-imaging of stable Flip-In T-Rex cell line Or47a/Or83b; assay type: cell-based; conditions: for inhibition at 4 µM: read-out: Percent Inhibition OR47a OR83b
T1 construct: Full-length cDNAs for mosquito (Anopheles gambiae) odorant receptor (OR1, OR2, OR7, OR8, OR28), and fly (Drosophila melanogaster) odorant receptor (Or47a, Or83b); expressed in transfected cells
T1 sequence (P81921 1-385): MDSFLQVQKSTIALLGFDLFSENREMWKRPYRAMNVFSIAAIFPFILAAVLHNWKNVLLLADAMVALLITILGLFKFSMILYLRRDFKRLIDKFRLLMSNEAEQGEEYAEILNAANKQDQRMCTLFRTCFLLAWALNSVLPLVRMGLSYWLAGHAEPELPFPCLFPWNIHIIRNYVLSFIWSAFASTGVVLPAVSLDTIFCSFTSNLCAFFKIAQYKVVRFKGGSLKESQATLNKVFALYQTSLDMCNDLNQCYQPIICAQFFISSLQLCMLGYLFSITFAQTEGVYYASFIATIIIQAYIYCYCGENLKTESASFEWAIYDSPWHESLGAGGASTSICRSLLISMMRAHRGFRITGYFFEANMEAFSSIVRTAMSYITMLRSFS
T1 sequence (Q9VNB5 1-486): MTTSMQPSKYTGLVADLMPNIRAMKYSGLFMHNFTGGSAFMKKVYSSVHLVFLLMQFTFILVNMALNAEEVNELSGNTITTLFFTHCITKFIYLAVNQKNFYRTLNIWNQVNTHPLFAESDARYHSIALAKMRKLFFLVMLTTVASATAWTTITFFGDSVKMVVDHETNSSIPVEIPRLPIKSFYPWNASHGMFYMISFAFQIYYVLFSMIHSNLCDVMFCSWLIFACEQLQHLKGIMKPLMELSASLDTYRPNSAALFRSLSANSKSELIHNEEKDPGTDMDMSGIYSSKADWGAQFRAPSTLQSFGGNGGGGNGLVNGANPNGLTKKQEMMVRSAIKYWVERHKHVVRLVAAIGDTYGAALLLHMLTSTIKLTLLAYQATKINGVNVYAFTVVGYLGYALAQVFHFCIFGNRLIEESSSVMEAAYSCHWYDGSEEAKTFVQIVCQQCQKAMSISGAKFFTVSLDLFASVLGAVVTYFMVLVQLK
Protocol: (§1) Full-length cDNAs for mosquito (Anopheles gambiae) odorant receptor (OR1, OR2, OR7, OR8, OR28), and fly (Drosophila melanogaster) odorant receptor (Or47a, Or83b), mouse TRP channel (TRPM8), and mouse serotonin receptor (5HT3) were obtained and subcloned into mammalian expression vectors. The following mammalian expression vectors were used:
(§2) Stable cell lines Or47a/Or83b and 5HT3 were generated from Flip-In T-Rex cells. Flip-In T-Rex-based cell lines were cultured in DMEM supplemented with these additional antibiotics: 6 μg/mL blasticidin and 100 μg/mL hygromycin.
(§3) Cells were trypsinized and split into 35 mm dishes 1 day before transfection. Confluent cells (60-70%) in 35 mm dishes were co-transfected with 1 μg of Or47a/Or83b plasmid in pcDNA5/FRT/TO/IRES plus the pOG44 plasmid or 1 μg of 5HT3 plasmid in pcDNA5/FRT/TO plus the pOG44 plasmid using lipofectamine 2000. Co-transfection of pOG44 and pcDNA5/FRT/TO/IRES or pcDNA5/FRT/TO allows expression of Flp recombinase and integration of the pcDNA5 plasmid into the genome via the FRT site. After one day of incubation, the transfected cells were transferred into 10 cm dishes with DMEM containing antibiotics: 20 μg/mL of hygromycin and 6 μg/mL of blasticidin. The concentration of Hygromycin was increased to 100 μg/mL when the population of cells became 30-40% confluent. The cells were cultured by changing medium every two days until cell clumps appeared. The clumps were picked and transferred into 96 well plates with DMEM containing 100 μg/mL of Hygromycin and 6 μg/mL of blasticidin. The cells were grown and transferred to 24 well plates, and ligand-evoked calcium increases were tested using the Hamamatsu FDSS6000 real time fluorescence plate reader.
(§4) Stable cell lines were cultured in 10 cm dishes, and confluent cells (70-80%) were trypsinized. 10,000 cells/20 μL were transferred into each well of 384-well plates coated with poly-D-lysine, and cultured for 2 days. For Flip-In T-Rex cells (cell lines expressing Or47a/Or83b and 5HT3), 5 μL of tetracycline (5 μg/mL) were added 1 day before the assay. 20 μL of Ca-4 dye was loaded into each well for 1.5 hr at room temperature in the dark, and the dye-loaded plates were subjected to Ca^2+-imaging using a Hamamatsu FDSS6000 real time fluorescence plate reader. Odorant solutions (9× final concentration) were prepared by dissolving 1M stock solutions into Hank's Buffered Salt Solution (HBSS), and 30 μL of odor solution was transferred to each well in 384-well plates.
(§5) Compounds ([…] in DMSO) were stored in 384-well plates, and last two columns (32 wells total) contained only DMSO. 200 nL of small compounds were transferred into the odorant plates before the assay using the Perkin-Elmer Janus workstation. The odorant plates were spun down to remove air bubbles, and placed on the FDSS6000 plate loader, and 5 μL of odorant solution was applied to the cell plate on the FDSS6000. Ca^2+ increase was monitored with fluorescence at 525 nm by excitation at 485 nm.

[1] = molecular target: T2, serotonin receptor (5HT3) (Mus musculus, UniProt P23979); assay: Ca2+-imaging of stable Flip-In T-Rex cell line 5HT3; assay type: cell-based; conditions: for inhibition at 4 µM: read-out: Percent Inhibition 5HT3
T2 construct: Full-length cDNAs for mosquito (Anopheles gambiae) odorant receptor; expressed in transfected cells
T2 sequence (P23979 24-489): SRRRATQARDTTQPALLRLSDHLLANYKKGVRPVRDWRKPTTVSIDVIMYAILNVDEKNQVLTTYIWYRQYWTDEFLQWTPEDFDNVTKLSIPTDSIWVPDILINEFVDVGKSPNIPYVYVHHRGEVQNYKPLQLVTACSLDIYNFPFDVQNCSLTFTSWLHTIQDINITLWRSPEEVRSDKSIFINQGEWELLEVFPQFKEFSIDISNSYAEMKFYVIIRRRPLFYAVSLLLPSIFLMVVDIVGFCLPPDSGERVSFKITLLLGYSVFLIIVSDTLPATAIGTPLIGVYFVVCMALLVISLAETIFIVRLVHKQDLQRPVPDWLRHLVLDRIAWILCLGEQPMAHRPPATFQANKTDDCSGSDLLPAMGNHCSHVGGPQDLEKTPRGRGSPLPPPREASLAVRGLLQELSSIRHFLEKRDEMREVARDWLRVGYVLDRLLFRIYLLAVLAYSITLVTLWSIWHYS
Protocol: as §1, §2, §3, §4, §5

[2] = ligand pentyl acetate 30 μM, read-out: IC50 OR47a OR83b
[3] = ligand serotonin 10 μM, read-out: IC50 5HT3

Row | Compound | IC50 (Or47a/Or83b; Table B, read-out: IC50 OR47a) [µM] | inhibition at 4 µM (Or47a/Or83b; compound applied at 4 μM) [%] | inhibition at 4 µM ([1]; compound applied at 4 μM) [%] | also measured
1 | O=C(c1cccc(F)c1)N(Cc1c(-c2ccccc2)noc1N1CCCC1)CC1CCCO1 (stereo not shown) [RU-0037434] | > 1 | 51 to 74 | 26 to 50 | –
2 | COCCN(Cc1nccn1Cc1c(F)cccc1Cl)C(=O)CCc1ccccc1 [RU-0058550] | – | 26 to 50 | < 25 | –
3 | CC(C)Nc1nc(Cl)nc(NCc2ccccc2)n1 [RU-T9] | – | – | – | IC50 (Or47a/Or83b): > 20 µM; IC50 [1]: > 50 µM
4 | CCN(CC)C(=O)Oc1ccc2c(ccn2Cc2ccc(Cl)cc2)c1NC(=O)C1CC1 [RU-0075475] | – | – | – | inhibition at 4 µM (Or47a/Or83b): < 25%; inhibition at 4 µM [1]: < 25%
5 | CCN(CC)c1onc(-c2ccc(F)cc2)c1CN(CCCOC)C(=O)c1ccc2c(c1)OCO2 [RU-0036983] | > 1 | 51 to 74 | 26 to 50 | –
6 | CCn1c(C)c(C(=O)CN(CC2CCCO2)C(=O)C2C[C@H]2c2ccccc2)c(C)c1C(=O)OC (stereo partly shown) [RU-0071273] | > 1 | 26 to 50 | 26 to 50 | –
7 | C=CCN(Cc1nccn1Cc1ccccc1C)C(=O)CC(C)C [RU-0058298] | > 1 | 51 to 74 | 26 to 50 | –
8 | COCCN(Cc1c(-c2ccccc2)noc1N1CCSCC1)CC(O)COCc1ccco1 (stereo not shown) [RU-0037278] | > 1 | 51 to 74 | 26 to 50 | –
9 | CCOC(=O)c1c(NC(C)=O)c(-c2ccc(OC)cc2)cn1Cc1ccccc1 [RU-0077733] | – | 26 to 50 | < 25 | –
10 | Cc1ccc(-c2nnc(SCCCC(=O)N3CCN(C(=O)c4cccc(F)c4)C(C)C3)n2-c2ccc(C)cc2)cc1 (stereo not shown) [RU-0071789] | – | 26 to 50 | 26 to 50 | –
11 | CCNc1nc(Cl)nc(NC(C)C)n1 [RU-T5] | – | – | – | IC50 (Or47a/Or83b; [2]): > 20 µM; IC50 [1, 3]: > 20 µM
12 | Fc1cccc(Cl)c1Cn1ccnc1CN(CC1CCCC1)C1CC1 [RU-I4] | – | – | – | IC50 (Or47a/Or83b; [2]): > 20 µM; IC50 [1, 3]: > 20 µM
13 | CCN(CC)c1onc(-c2ccccc2)c1CN(CC1CCCO1)C(=O)c1ccc2c(c1)OCO2 (stereo not shown) [RU-0036875] | > 1 | 51 to 74 | 51 to 74 | IC50 ([1]; Table B, read-out: IC50 5HT3): > 1 µM
14 | CC(C)N(Cc1nccn1Cc1c(F)cccc1Cl)C(=O)c1ccc(Cl)cc1 [RU-0055364] | – | 26 to 50 | < 25 | –
15 | COc1ccccc1CCC(=O)N1CCC(CCC(=O)Nc2ccccc2)CC1 [RU-0032455] | > 1 | 51 to 74 | 26 to 50 | –
16 | CCc1cc(N2CCCC2)nc(SCc2ccc(C(=O)N3CCOCC3)o2)n1 [RU-0047568] | – | 26 to 50 | 26 to 50 | –
17 | c1ccc(CNc2nc(NCc3ccco3)nc(N3CCOCC3)n2)cc1 [RU-0020050] | < 0.1 | 51 to 74 | 26 to 50 | –
18 | Cc1ccccc1C(=O)N[C@@H]1CCCCC1NC(=O)C1CCN(C(=O)C23CC4CC(CC(C4)C2)C3)CC1 (stereo partly shown) [RU-0045351] | – | 26 to 50 | < 25 | –
19 | Cc1cccc(Cn2ccnc2CN(C(=O)c2ccccc2F)C2CCCCC2)c1 [RU-0047851] | – | 26 to 50 | < 25 | –
20 | CC(C)Nc1nc(Cl)nc(NC(C)C)n1 [RU-T1] | – | – | – | IC50 (Or47a/Or83b; [2]): > 20 µM; IC50 [1, 3]: > 20 µM
21 | CC(C)Nc1nc(NC(C)C)nc(C(F)(F)F)n1 [RU-T8] | – | – | – | IC50 (Or47a/Or83b): > 20 µM; IC50 [1]: > 20 µM
22 | C=CCN(Cc1nccn1Cc1cccc(F)c1)C(=O)c1ccccc1F [RU-I1] | – | – | – | IC50 (Or47a/Or83b; [2]): > 20 µM; IC50 [1, 3]: 20 to 50 µM
23 | O=C(c1ccco1)N(Cc1nccn1Cc1c(F)cccc1Cl)C1CC1 [RU-0048046] | – | 26 to 50 | < 25 | –
24 | COc1ccc(-n2c(Cc3ccccc3)nnc2SCCCC(=O)N2CCN(C(=O)c3ccc(C(F)(F)F)cc3)C(C)C2)cc1 (stereo not shown) [RU-0071828] | – | 26 to 50 | 26 to 50 | –
25 | COCCCN(Cc1c(-c2ccccc2)noc1N(C)C(C)C)C(=O)c1ccccc1OC [RU-0037003] | – | < 25 | 26 to 50 | –
26 | Cc1ccccc1C(=O)N[C@@H]1CCCCC1NC(=O)C1CCN(C(=O)c2ccc(C(C)(C)C)cc2)CC1 (stereo partly shown) [RU-0045678] | – | 26 to 50 | 26 to 50 | –

From US20130324522A1, “INSECT ODORANT RECEPTOR ANTAGONISTS” (THE ROCKEFELLER UNIVERSITY, priority 2010, published 2013)
